{"source": "patent US10683329B2", "about": "“Dual-site BACE1 inhibitors” (priority 2014, dated 2020)", "note": "pIC50: −log10 of the molar value. Where a SMILES comes first, the peptide text is derived from it. [ ]: non-standard residue; d: D form. The star is where a group is joined. Succinyl(4-O-cholesteryl) = CC(C)CCC[C@@H](C)[C@H]1CC[C@H]2[C@@H]3CC=C4C[C@@H](OC(=O)CCC(=O)*)CC[C@]4(C)[C@H]3CC[C@]12C; Sta = CC(C)C[C@H](N)[C@@H](O)CC(=O)O; PEG4 = NCCOCCOCCOCCOCCC(=O)O"}
{"target": "T1, BACE1 (Homo sapiens, UniProt P56817)", "T1 construct": "Human HEK293 cells which are stably transfected with a vector expressing a cDNA of the human APP wt gene (APP695); endogenous in cells; host or cells: HEK293 (human), stably transfected with human APP695 wt", "T1 sequence (P56817 46-501)": "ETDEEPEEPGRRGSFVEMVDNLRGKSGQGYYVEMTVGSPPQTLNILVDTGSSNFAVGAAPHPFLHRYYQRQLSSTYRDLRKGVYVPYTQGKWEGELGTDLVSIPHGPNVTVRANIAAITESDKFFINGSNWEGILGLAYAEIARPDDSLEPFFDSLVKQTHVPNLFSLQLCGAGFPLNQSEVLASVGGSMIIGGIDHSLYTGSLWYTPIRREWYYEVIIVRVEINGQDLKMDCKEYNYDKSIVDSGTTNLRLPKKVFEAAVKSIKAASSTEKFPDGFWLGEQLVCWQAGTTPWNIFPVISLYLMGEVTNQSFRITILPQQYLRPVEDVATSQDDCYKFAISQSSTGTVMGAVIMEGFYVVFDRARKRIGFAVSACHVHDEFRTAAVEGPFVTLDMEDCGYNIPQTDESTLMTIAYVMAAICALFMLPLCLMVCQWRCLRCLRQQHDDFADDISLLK", "assay": "Cellular Aβ-lowering assay (Aβ40 ELISA of culture supernatant)", "type": "cell-based", "settings": "Aβ40 in supernatant of human HEK293 cells stably transfected with human APP wt (APP695); 18-20 hrs incubation; read-out: IC 50", "procedure": "The compounds were investigated in accordance with the test given hereinafter.\nCellular Aβ-Lowering Assay:\nHuman HEK293 cells which are stably transfected with a vector expressing a cDNA of the human APP wt gene (APP695) were used to assess the potency of the compounds in a cellular assay. The cells were seeded in 96-well microtiter plates in cell culture medium (Iscove, plus 10% (v/v) fetal bovine serum, glutamine, penicillin/streptomycin) to about 80% confluence and the compounds were added at a 10× concentration in 1/10 volume of medium without FCS containing 8% DMSO (final concentration of DMSO was kept at 0.8% v/v). After 18-20 hrs incubation at 37° C. and 5% CO2 in a humidified incubator the culture supernatant was harvested for the determination of Aβ40 concentrations. 96 well ELISA plates (e.g., Nunc MaxiSorb) were coated with monoclonal antibody which specifically recognize the C-terminal end of Aβ40 (Brockhaus et al., NeuroReport 9; 1481-1486; 1998). After blocking of non-specific binding sites with e.g. 1% BSA and washing, the culture supernatants were added in suitable dilutions together with a horseradish peroxidase-coupled Aβ detection antibody (e.g., antibody 4G8, Senetek, Maryland Heights, Mo.) and incubated for 5 to 7 hrs. Subsequently the wells of the microtiter plate were washed extensively with Tris-buffered saline containing 0.05% Tween 20 and the assay was developed with tetramethylbenzidine/H2O2 in citric acid buffer. After stopping the reaction with one volume 1 N H2SO4 the reaction was measured in an ELISA reader at 450 nm wavelength. The concentrations of Aβ in the culture supernatants were calculated from a standard curve obtained with known amounts of pure Aβ peptide."}
{"smiles": "CC(C)CCC[C@@H](C)[C@H]1CC[C@H]2[C@@H]3CC=C4C[C@@H](OC(=O)CCC(=O)NCCCC[C@H](NC(=O)[C@H]5CCCN5C(=O)[C@H](CCC(=O)O)NC(=O)[C@H](C)NC(=O)[C@@H](NC(=O)C[C@H](O)[C@H](CC(C)C)NC(=O)[C@H](CC(N)=O)NC(=O)[C@@H](NC(=O)[C@H](CCC(=O)O)NC(=O)CCOCCOCCOCCOCCNC(=O)[C@H](CC(C)C)NC(=O)[C@@H]5CCCN5C(=O)[C@H](CCCCN)NC(=O)[C@H](Cc5ccccc5)NC(=O)[C@H](Cc5ccc(O)cc5)NC(=O)[C@@H]5CCCN5C(=O)[C@@H](N)Cc5ccc(O)cc5)C(C)C)C(C)C)C(N)=O)CC[C@]4(C)[C@H]3CC[C@]12C", "note": "[Example 34, Tyr-Pro-Tyr-Phe-Lys-Pro-Leu-PEG(4)-Glu-Val-Asn-Sta-Val-Ala-Glu-DPro-Lys(Chol)-NH2] (H-YPYFKPL[PEG4]EVN[Sta]VAE[dP]K(Succinyl(4-O-cholesteryl))-NH2)", "pIC50": 10.63}
{"smiles": "CC[C@H](C)[C@H](NC(=O)[C@H](Cc1ccccc1)NC(=O)[C@H](Cc1ccc(O)cc1)NC(=O)[C@@H]1CCCN1C(=O)[C@@H](N)Cc1ccc(O)cc1)C(=O)N1CCC[C@H]1C(=O)N[C@@H](CC(C)C)C(=O)N[C@@H](CCCCN)C(=O)NCC(=O)NCC(=O)N[C@@H](CCC(=O)O)C(=O)N[C@H](C(=O)N[C@@H](CC(N)=O)C(=O)N[C@@H](CC(C)C)[C@@H](O)CC(=O)N[C@H](C(=O)N[C@@H](C)C(=O)N[C@@H](CCC(=O)O)C(=O)N1CCC[C@@H]1C(=O)N[C@@H](CCCCNC(=O)CCC(=O)O[C@H]1CC[C@@]2(C)C(=CC[C@H]3[C@@H]4CC[C@H]([C@H](C)CCCC(C)C)[C@@]4(C)CC[C@@H]32)C1)C(N)=O)C(C)C)C(C)C", "note": "[Example 40, Tyr-Pro-Tyr-Phe-Ile-Pro-Leu-Lys-Gly-Gly-Glu-Val-Asn-Sta-Val-Ala-Glu-DPro-Lys(Chol)-NH2]", "pIC50": 10.63}
{"smiles": "CC[C@H](C)[C@H](NC(=O)[C@H](Cc1ccccc1)NC(=O)[C@H](Cc1ccc(O)cc1)NC(=O)[C@@H]1CCCN1C(=O)[C@@H](N)CCCCN)C(=O)N1CCC[C@H]1C(=O)N[C@@H](CC(C)C)C(=O)NCC(=O)N[C@H](CCCCN)C(=O)NCC(=O)N[C@@H](CCC(=O)O)C(=O)N[C@H](C(=O)N[C@@H](CC(N)=O)C(=O)N[C@@H](CC(C)C)[C@@H](O)CC(=O)N[C@H](C(=O)N[C@@H](C)C(=O)N[C@@H](CCC(=O)O)C(=O)N1CCC[C@@H]1C(=O)N[C@@H](CCCCNC(=O)CCC(=O)O[C@H]1CC[C@@]2(C)C(=CC[C@H]3[C@@H]4CC[C@H]([C@H](C)CCCC(C)C)[C@@]4(C)CC[C@@H]32)C1)C(N)=O)C(C)C)C(C)C", "note": "[Example 48, Lys-Pro-Tyr-Phe-Ile-Pro-Leu-Gly-DLys-Gly-Glu-Val-Asn-Sta-Val-Ala-Glu-DPro-Lys(Chol′estert)-NH2] (H-KPYFIPLG[dK]GEVN[Sta]VAE[dP]K(Succinyl(4-O-cholesteryl))-NH2)", "pIC50": 10.70}
{"smiles": "CC[C@H](C)[C@H](NC(=O)[C@H](Cc1ccccc1)NC(=O)[C@H](Cc1ccc(O)cc1)NC(=O)[C@@H]1CCCN1C(=O)[C@@H](N)Cc1ccc(O)cc1)C(=O)N1CCC[C@H]1C(=O)N[C@@H](CC(C)C)C(=O)NCC(=O)N[C@H](C)C(=O)NCC(=O)N[C@@H](CCC(=O)O)C(=O)N[C@H](C(=O)N[C@@H](CC(N)=O)C(=O)N[C@@H](CC(C)C)[C@@H](O)CC(=O)N[C@H](C(=O)N[C@@H](C)C(=O)N[C@@H](CCC(=O)O)C(=O)N1CCC[C@@H]1C(=O)N[C@@H](CCCCNC(=O)CCC(=O)O[C@H]1CC[C@@]2(C)C(=CC[C@H]3[C@@H]4CC[C@H]([C@H](C)CCCC(C)C)[C@@]4(C)CC[C@@H]32)C1)C(N)=O)C(C)C)C(C)C", "note": "[Example 53, Tyr-Pro-Tyr-Phe-Ile-Pro-Leu-Gly-DAla-Gly-Glu-Val-Asn-Sta-Val-Ala-Glu-DPro-Lys(Chol′ester′)-NH2]", "pIC50": 10.70}
{"smiles": "CC[C@H](C)[C@H](NC(=O)[C@H](Cc1ccccc1)NC(=O)[C@H](Cc1ccc(O)cc1)NC(=O)[C@@H]1CCCN1C(=O)[C@@H](N)Cc1ccc(O)cc1)C(=O)N1CCC[C@H]1C(=O)N[C@@H](CC(C)C)C(=O)N[C@@H](CO)C(=O)NCC(=O)NCC(=O)N[C@@H](CCC(=O)O)C(=O)N[C@H](C(=O)N[C@@H](CC(N)=O)C(=O)N[C@@H](CC(C)C)[C@@H](O)CC(=O)N[C@H](C(=O)N[C@@H](C)C(=O)N[C@@H](CCC(=O)O)C(=O)N1CCC[C@@H]1C(=O)N[C@@H](CCCCNC(=O)CCC(=O)O[C@H]1CC[C@@]2(C)C(=CC[C@H]3[C@@H]4CC[C@H]([C@H](C)CCCC(C)C)[C@@]4(C)CC[C@@H]32)C1)C(N)=O)C(C)C)C(C)C", "note": "[Example 54, Tyr-Pro-Tyr-Phe-Ile-Pro-Leu-Ser-Gly-Gly-Glu-Val-Asn-Sta-Val-Ala-Glu-DPro-Lys(Chol′ester′)-NH2] (H-YPYFIPLSGGEVN[Sta]VAE[dP]K(Succinyl(4-O-cholesteryl))-NH2)", "pIC50": 10.28}
